Source: patent US6951647B2, “T cell binding ligand peptides and method of inducing a cellular immune response” (Cel-Sci Corporation, priority 2001, dated 2005)
Values joined by “and” are separate entries in the source; they are usually repeats but may differ in a detail not shown here. Equal values may be shown once.

Tested on: modified HGP-30 (mH, SEQ ID NO:6)
Assay: Isotype analysis (ELISA) of anti-mH antibody in sera of immunized mice
Assay type: in vivo
Design: IgG1 / IgG2a / IgG2b / IgG3: unit not given here
Settings: for IgG1 / IgG2a / IgG2b / IgG3: ELISA signal, day 42 test bleeding
Method: Mice in groups (5-10 animals per group as designated) are immunized with the LEAPS constructs (25 μg/dose) of SEQ ID NO's:37, 38 and 39, in 0.2 mL emulsified 1:1 with adjuvant (Seppic's ISA-51 or Corixa's microfluidized MPL S/E) on days 0 and 14. Mice are evaluated by Delayed Type of Hypersensitivity (DTH) by inoculation on day 26 with 20 μl of a solution of saline or mH (SEQ ID NO:6) (25 μg in saline) in the left or right ear respectively. The DTH response is determined by measurement of the ear thickness 48 hours later and expressed as increase in ear thickness (mm) of experimental ear compared to that of the control ear. Individual animal sera are collected for measurement of antibody on day 28, 42, 63 and 77. Sera from individual animals and group pools are evaluated for specific anti-mH antibody, for total antibody, IgG1, IgG2a and IgG3 antibody isotype and cross clade titer at selected time points as indicated.
The results of an isotype analysis of day 42 test bleedings with G′-mH (SEQ ID NO:37), G-mH (SEQ ID NO:38), J-mH (SEQ ID NO:39), F-mH (SEQ ID NO:40) and F-HGP-30 (SEQ ID NO:41), are shown in Table 1.
An isotype analysis for pools of day 28 test bleedings G-mH, G′-mH and m-HGP-30/KLH using either MPL S/E or ISA51 as adjuvant, are shown in Table 3.

[1] = day 28 pool, group without '(with MPL)' (ISA51)

## NGQ EEK AGV VST GLI GGG ATL YSV HQR IDV KDT KEA LEK IEE EQN KS (DGQEEKAGVVSTGLIGGGEAQNTTYL) [SEQ ID NO: 58, Peptide G linked by GGG spacer to modified HGP-30 (mH)]
Group Average
  IgG1: 1.400
  IgG2a: 0.367
  IgG2b: 0.478
  IgG3: 0.531
Individual mouse
  IgG1: 1.810 and 2.606 and 1.738 and 0.123 and 1.649 and 2.651 and 0.562 and 0.431 and 0.042 and 2.391
  IgG2a: 0.152 and 1.386 and 0.074 and 0.005 and 0.129 and 1.619 and 0.047 and 0.031 and 0.025 and 0.200
  IgG2b: 0.223 and 2.038 and 0.464 and 0.017 and 0.025 and 1.613 and 0.059 and 0.038 and 0.183 and 0.123
  IgG3: 0.388 and 1.817 and 0.033 and −0.013 and 0.152 and 2.378 and 0.000 and 0.106 and 0.089 and 0.358
[1]
  Ig1, serial dilution 1:200: 0.507
  Ig1, serial dilution 1:800: 0.173
  Ig1, serial dilution 1:3200: 0.025
  Ig1, serial dilution 1:12800: 0.009
  Ig1, serial dilution 1:51200: 0.014
  Ig1, serial dilution 1:204800: 0.000
  Ig2a, serial dilution 1:200: 0.000
  Ig2a, serial dilution 1:800: 0.015
  Ig2a, serial dilution 1:3200: 0.000
  Ig2a, serial dilution 1:12800: 0.003
  Ig2a, serial dilution 1:51200: 0.006
  Ig2a, serial dilution 1:204800: 0.000
  Ig2b, serial dilution 1:200: 0.017
  Ig2b, serial dilution 1:800: 0.000
  Ig2b, serial dilution 1:3200: 0.004
  Ig2b, serial dilution 1:12800: 0.001
  Ig2b, serial dilution 1:51200: 0.000
  Ig2b, serial dilution 1:204800: 0.000
  Ig3, serial dilution 1:200: 0.009
  Ig3, serial dilution 1:800: 0.002
  Ig3, serial dilution 1:3200: 0.000
  Ig3, serial dilution 1:12800: 0.000
  Ig3, serial dilution 1:51200: 0.000
  Ig3, serial dilution 1:204800: 0.000
Day 28 pool, with MPL
  Ig1, serial dilution 1:200: 0.103
  Ig1, serial dilution 1:800: 0.022
  Ig1, serial dilution 1:3200: 0.003
  Ig1, serial dilution 1:12800: 0.000
  Ig1, serial dilution 1:51200: 0.000
  Ig1, serial dilution 1:204800: 0.000
  Ig2a, serial dilution 1:200: 0.248
  Ig2a, serial dilution 1:800: 0.048
  Ig2a, serial dilution 1:3200: 0.000
  Ig2a, serial dilution 1:12800: 0.000
  Ig2a, serial dilution 1:51200: 0.002
  Ig2a, serial dilution 1:204800: 0.000
  Ig2b, serial dilution 1:200: 0.147
